Experimental data: the NIST ThermoML archive (doi:10.1016/j.jct.2007.05.001)
± gives the expanded uncertainty stated by the source.

Test: refractive index (Na D-line) (dimensionless)
Conditions: 293.1 K; 101.33 kPa; Liquid; Standard Abbe refractometry

Compound | refractive index
Cc1cccc(C)c1 [1,3-dimethylbenzene] | 1.4943 ± 0.0008
O=CN1CCOCC1 [N-formylmorpholine] | 1.484 ± 0.0008
